Measured values published in patent publication US11472844B2, “Peptidomimetics, method of synthesis and uses thereof” (priority 2017, dated 2022).
“Also recorded” adds a separate entry of the source. Non-standard residues stand in square brackets, D forms with d. No end group written: not given here. *: point of attachment. X1 = CC[N+]1=C(/C=C/C=C/C=C2N(CCCCCC(=O)NCCN3C(=O)CC(*)C3=O)c3ccc(S(=O)(=O)O)cc3C2(C)C)C(C)(C)c2cc(S(=O)(=O)[O-])ccc21

Assays:
trypsin = trypsin (Sus scrofa, UniProt P00761); details: trypsin digestion, 37°C, pH8, followed up to 24 h
Protocol: Trypsin proteolysis. MUB40 (SEQ ID NO: 3)-Cy5 and RI-MUB40 (SEQ ID NO: 2)-Cy5 were dissolved in 50 mM ammonium bicarbonate, pH 8. Prior to digestion and owing to the propensity of maleimide derivatives to undergo ring-opening in a basic environment (Fontaine et al., 2015), we incubated both peptides at 37° C. overnight. Ring-opening completion was checked before trypsin addition. […] Lyophilized trypsin (Thermo scientific) was reconstituted using 50 mM acetic acid, diluted with 50 mM ammonium bicarbonate and added to the peptide solution so as to obtain a final peptide concentration of 0.25 mg/mL and a protease to protein ratio of 1:20 (w/w). Samples were directly incubated on the injection sampler thermostated at 37° c. HPLC and LC-MS analyses were performed as previously described above, applying a 15% to 40% linear gradient of acetonitrile in 10 mM ammonium acetate over 20 minutes.
Hydrolysis experiments were done in solution at 37° c., pH8 and monitored by HPLC by measuring the peak area of the remaining intact peptides.

human colonic mucus = experiment: Fluorescent labelling of human colonic mucus layer; type: binding; details: 1 μg/mL
Protocol: Colon explant surgical collection. In summary, human colon segments (ascending, descending, and sigmoid colon) were obtained from fully informed patients undergoing surgery for colon carcinoma and were analyzed anonymously. Patient written consent was obtained, according to the French bioethics law. None of the patients had undergone radiotherapy or chemotherapy. According to the pathologist's examination rules for the longitudinally bisected colon, a healthy segment of tissue, which was distant from the tumor region and devoid of metastatic cells, was removed. Tissues were processed according to the French Government guidelines for research on human tissues and the French Bioethics Act with the authorization no RBM 2009-50.
Fixation and staining procedures. For microscopy studies, purified or cultured cells and polymerized lactoferrin were resuspended onto 24-well plates containing 12 mm coverslips in RMPI 1640+10 mM Hepes (when cultured in the autologous plasma) and centrifuged at 300×g for 10 min. Culture media were removed and cells were fixed in 4% Paraformaldehyde (PFA) for two hours. Fixed cells were washed three times in PBS+0.1% saponin (Sigma-Aldrich), prior immunolabeling with primary antibodies in the same buffer for 1 hour (Triton 0.1% can alternatively be used for cell permeabilization). After three additional washes in PBS+0.1% saponin, secondary antibodies and fluorescent markers were incubated for one hour. […]
Antibodies, fluorescent markers. For immunofluorescence assay, lactoferrin was detected with a mouse anti-lactoferrin primary monoclonal antibody (Hycult biotech, clone 265-1K1, 1:50 dilution) and an anti-mouse-FITC conjugated secondary antibody (1:1000). Nuclei were detected with DAPI (Life Technologies), Lyophilized MUB40 peptides (MUB40#1 (SEQ ID NO: 3)-Cy5, MUB40#2 (SEQ ID NO: 4)-Cy5, MUB40#3 (SEQ ID NO: 5)-Cy5, MUB40#4 (SEQ ID NO: 6)-Cy5, MUB40#1 (SEQ ID NO: 3)-Dylight, RI-MUB40 (SEQ ID NO: 2)-Cy5, and RI-MUB40 (SEQ ID NO: 2)-Biotin) were solubilized in a phosphate buffer pH8 at a 1 mg/mL concentration and used at a 1:1000 dilution. […]

[1] = system: human neutrophil granules; experiment: Fluorescent labelling of fixed purified human neutrophils; type: cell-based; details: 1 μg/mL
Protocol: Fixation and staining procedures. For microscopy studies, purified or cultured cells and polymerized lactoferrin were resuspended onto 24-well plates containing 12 mm coverslips in RMPI 1640+10 mM Hepes (when cultured in the autologous plasma) and centrifuged at 300×g for 10 min. Culture media were removed and cells were fixed in 4% Paraformaldehyde (PFA) for two hours. Fixed cells were washed three times in PBS+0.1% saponin (Sigma-Aldrich), prior immunolabeling with primary antibodies in the same buffer for 1 hour (Triton 0.1% can alternatively be used for cell permeabilization). After three additional washes in PBS+0.1% saponin, secondary antibodies and fluorescent markers were incubated for one hour. Coverslips were washed three time in PBS+0.1% saponin, three times in PBS, and three times in deionized H2O and mounted with prolong gold^tm mounting media.
Antibodies, fluorescent markers. For immunofluorescence assay, lactoferrin was detected with a mouse anti-lactoferrin primary monoclonal antibody (Hycult biotech, clone 265-1K1, 1:50 dilution) and an anti-mouse-FITC conjugated secondary antibody (1:1000). Nuclei were detected with DAPI (Life Technologies), Lyophilized MUB40 peptides (MUB40#1 (SEQ ID NO: 3)-Cy5, MUB40#2 (SEQ ID NO: 4)-Cy5, MUB40#3 (SEQ ID NO: 5)-Cy5, MUB40#4 (SEQ ID NO: 6)-Cy5, MUB40#1 (SEQ ID NO: 3)-Dylight, RI-MUB40 (SEQ ID NO: 2)-Cy5, and RI-MUB40 (SEQ ID NO: 2)-Biotin) were solubilized in a phosphate buffer pH8 at a 1 mg/mL concentration and used at a 1:1000 dilution. For PBMC staining CD19-APC (B lymphocytes), CD3-APC (T lymphocytes), and CD14-PercP (monocytes, macrophages) (BD Bioscience) were used at a 1:1000 dilution together with Dapi (1:1000) and MUB40-Cy5 (1 mg/mL). Actin was stained with Phalloidin-Rhodamine red X (RRX) (Jackson Immunoresearch Antibodies) used at a 1:1000 final dilution.
Polymorphonuclear neutrophils purification. Human polymorphonuclear neutrophils were purified as described previously (Monceaux et al. 2016). Briefly, plasma was removed by centrifugation (450×g, 15 min); blood cells were resuspended in 0.9% NaCl solution supplemented with 0.72% Dextran. After red blood cells sedimentation, white blood cells were pelleted and further separated on a two layer Percoll (GE Healthcare) (51%−42%) by centrifugation (at 240×g, 20 min). PBMC (top layer) were isolated from polymorphonuclear neutrophils (bottom layer). Red blood cells were removed from the latter fraction using CD235a (glycophorin) microbeads (negative selection) (Miltenyi Biotec). PBMCs and polymorphonuclear neutrophils were resuspended in the autologous plasma. Guinea pig and mouse polymorphonuclear neutrophils were purified with the same procedure.
Confocal microscopy. […]

[2] = system: mucus produced by human cell lines (L174T); experiment: Binding to mucus produced by human cell lines; type: cell-based
living human neutrophils = experiment: Live microscopy of neutrophils infected with Shigella flexneri; type: cell-based
Protocol: Neutrophil infection. Human purified neutrophils were cultured in glass-bottom dishes (Mattek) for live fluorescent microscopy in a RMPI 1640 (Life Technologies) culture medium supplemented with 10% of heat inactivated Human Serum (Sigma-Aldrich). Neutrophils (5.10^5 cell/mL in 2 mL) were infected with exponentially-grown Shigella flexneri 5a pGFP at a Multiplicity Of Infection (MOI) 20 in RMPI 1640 (Life Technologies) culture medium supplemented with 10 mM Hepes (Life Technologies) at 37° C. Infected neutrophils were centrifuged at 2000 rpm for 10 min prior imaging.
Live epifluorescence microscopy. Viable neutrophils infected with S. flexneri pGFP were imaged on a Definite focus live microscope (Zeiss) equipped with a temperature control chamber (37° C.) and a 63× oil immersion objective. Images were acquired every 60 s. Z-stack images were taken with […] step-size increments. Obtained Z-stack images were processed with Fiji software to generate a Movie and the corresponding extracted images are shown in FIG. 16a.

[3] = system: inflammatory sites, localized in joints; experiment: Mouse arthritis model (K/B×N serum transfer), in vivo epifluorescence imaging
Protocol: Mouse arthritis model. 6-7 weeks old female C57BL/6J mice were purchased from Charles River France, housed under specific pathogen-free (SPF) conditions and handled in accordance with French and European directives. Mouse protocols were approved by the Animal Ethics committee CETEA number 89 (Institut Pasteur, Paris, France) and registered under #2013-0103, and by the French Ministry of Research under agreement #00513.02. Arthritis was induced by i.v. injection of 120 μL K/B×N serum and arthritis scored as described previously (Bruhns et al. 2003). Mice injected with physiological saline were used as controls. On day 6 after serum transfer, mice were anesthetized, shaved, depilated and injected i.p. with luminol (10 mg/mouse) and i.v. with 5 μg/mouse MUB-40 Cy5. Epifluorescence, bioluminescence and CT images were acquired 10-90 min after injection using an IVIS SpectrumCT (Perkin Elmer).

[4] = system: hind and front inflamed ankles; experiment: K/B×N mice, ankle fluorescence imaging after intravenous injection; type: in vivo, mouse; details: 2 days post i.v. injection of 0.9 nmoles; p<0.01 vs MUB40-Cy5, p<0.001 vs Cy5 only
Text: (A) Ankles of K×B/N mice were imaged 2 Days after intravenous injection of 0.9 nmoles of RI-MUB40-Cy5 (SEQ ID NO: 2), MUB40-Cy5 (SEQ ID NO: 3) or Cy5 only. Fluorescence was quantified at the level of front or hind ankles (in ROI, as indicated).
(B) Quantification of the fluorescent signal associated with RI-MUB40 (SEQ ID NO: 2)-Cy5, MUB40 (SEQ ID NO: 3)-Cy5 or Cy5 accumulation at hind and front ankles (top) or hind ankles only (bottom). Results are average from at least three animals. ** indicates p<0.01 and *** indicates p<0.001 (Student's T-test).

[5] = system: neutrophils recruited to guinea pig colonic mucosa infected with Shigella flexneri; experiment: Guinea pig model of shigellosis, staining of fixed colon sections; details: guinea pig colon, Shigella flexneri, 1 μg/ml
Protocol: Guinea pig. The experimental protocol was approved by the french Ethic Committee Paris (n° 20140069, 2014). Young guinea pigs (Hartley, <150 g, Charles River) were anaesthetized and infected intrarectally with 10^9 CFU exponentially grown Shigella flexneri 5a (M90T) pGFP as previously described (Shim et al. 2007) (Monceaux et al. 2016). Infection occurred during 8 hours before animals were sacrificed and infected colons collected and fixed in 4% Paraformaldehyde (PFA) for two hours. For immunohistochemical staining, infected guinea pig colon samples were washed in PBS and incubated at 4° C. in PBS containing 16% sucrose for 4 hours, followed by incubation in PBS with 30% sucrose overnight. Samples were frozen in OCT (VWR 361603E) on dry ice. Frozen blocks were stored at −80 until sectioning. 10 to 30 μm sections were obtained using a cryostat CM-3050S (Leica). Tissue slices were labeled in PBS+0.1% saponin (Sigma-Aldrich) with MUB40-Cy5 or MUB40-Dylight (1 μg/ml) to localize recruited neutrophils. Slides were washed three time in PBS+0.1% saponin, three times in PBS, and three times in deionized H2O and mounted with prolong gold^tm mounting media.

[6] = system: neutrophils recruited to rabbit ileum infected with Shigella flexneri; experiment: Rabbit ligated loop model of shigellosis, staining of fixed ileum sections; details: 1 μg/mL
Protocol: Rabbit. The experimental protocol was approved by the french Ethic Committee Paris 1 (number 20070004, December 9th 2007). New Zealand White rabbits weighting 2.5-3 kg (Charles River) were used for experimental infections. For each animal, up to 12 intestinal ligated loops, each 5 cm in length, were prepared as described previously (Jones et al. 2007; Martinez et al. 1988; West et al. 2005) and infected with 10^5 CFU S. flexneri pGFP per loop. After 16 h, animals were sacrificed and collected tissue were fixed in 4% Paraformaldehyde (PFA) for two hours. For immunohistochemical staining, infected rabbit ileum samples were washed in PBS, incubated at 4° C. PBS containing 12% sucrose for 90 min, then in PBS with 18% sucrose overnight, and frozen in OCT (Sakura) on dry ice. 7 μm sections were obtained using a cryostat CM-3050 (Leica). Fluorescent staining was performed in PBS+0.1% saponin using Phalloidin-RRX (1:1000 dilution) to stain Actin, MUB40-Cy5 (1 μg/mL) and a mouse anti-lactoferrin primary monoclonal antibody (Hycult biotech, clone 265-1K1, 1:50 dilution) and an anti-mouse-FITC conjugated secondary antibody (1:1000) to stain infiltrated neutrophils. Slides were washed three time in PBS+0.1% saponin, three times in PBS, and three times in deionized H2O and mounted with prolong gold^tm mounting media.

Chain of trypsin (P00761 9-231): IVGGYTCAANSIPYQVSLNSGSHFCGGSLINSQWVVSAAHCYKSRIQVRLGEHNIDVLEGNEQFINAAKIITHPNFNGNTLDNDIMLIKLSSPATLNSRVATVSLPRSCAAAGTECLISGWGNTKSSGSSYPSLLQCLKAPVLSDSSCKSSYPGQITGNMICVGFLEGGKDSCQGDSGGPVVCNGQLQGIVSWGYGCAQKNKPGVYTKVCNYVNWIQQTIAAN

Row | Substance | degradation by trypsin (in words) (trypsin) | labelling of / binding to human colonic mucus (human colonic mucus) | labelling of human neutrophil granules [1] | binding to mucus produced by human cell lines (L174T) [2] | detection of lactoferrin degranulation on living neutrophils (living human neutrophils; Shigella flexneri MOI 20, 1 μg/mL, 37°C) | crossing of plasma membrane of living cells (living human neutrophils; live cells, listed as RI-MUB40-Cy5) | relation of epifluorescent signal to luminol bioluminescent signal ([3]; hind ankle joints, p≤0.0001) | accumulation of fluorescent signal at inflammatory sites ([3]; i.v. injection, arthritic mice but not naïve controls, day 6) | epifluorescent signal, arthritic mice vs controls ([3]; p≤0.0001, T-test) | fluorescent signal accumulation at hind and front inflamed ankles [4] | labelling of recruited neutrophils [5] | labelling of recruited neutrophils [6]
1 | Ac-[dC](X1)[dF][dI][dV][dT][dY][dF][dQ][dD][dN][dT][dD][dD][dN][dD][dF][dK][dE]G[dA][dP][dF][dN][dD][dK][dF][dL][dE][dY]G[dD]G[dE][dF][dK][dK][dI]G[dE][dA][dT]-NH2 [Cy5-RI-MUB40] | no degradation | validated | validated | validated | transient, dot-shaped fluorescent signals were detected on the cells' surface | did not cross the plasma membrane of living cells; also recorded: does not cross plasma membrane of live cells | correlated | a fluorescent signal accumulated at inflammatory sites | significantly higher in arthritic mice compared to controls | significantly higher compared to MUB40-Cy5 | – | –
2 | MUB40-Dylight405: MUB40#1 (SEQ ID NO: 3) labeled with Dylight 405 (CTAEGIKKFEGDGYELFKDNFPAGEKFDNDDTNDQFYTVIF; also: Dylight 405 label (site not given here)) | – | – | specifically labeled | – | – | – | – | – | – | – | specifically labeled | specifically labeled
